Some test systems named below: SF-268 CNS; SK-MEL-2 melanoma; HOP-62 NSCLC; HCT-116 colon; M14 melanoma; 786-0 renal; SN12C renal; RXF 393 renal; NCI-H522 lung; HOP-92 NSCLC.
Holding throughout (test): NCI-60 cell line screen, 48 h

This is an account of results in PubChem BioAssay (NCI).

Several values for one entry are separate records, joined by “and”; a condition that tells them apart may be missing. Equal values may be shown once.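 Protocol summary: plate cells (96-well), add compound at 5 concentrations, incubate 48 h, interpolate endpoints linearly. GI50 is the concentration that inhibits growth by half. The concentration for full growth arrest is given as TGI.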

`CCCCCCCCCCCCCCCCC(C(=O)O)C(O)(CC(=O)O)C(=O)O` (centres undefined): the TGI with SF-268 CNS is 70.3 µM; with SK-MEL-2 melanoma, 41.4 µM; with HOP-62 NSCLC, 34.1 µM; in the assay on HCT-116 colon, 36.3 µM; in the assay on M14 melanoma, 47.7 µM; with 786-0 renal, more than 100 µM. Further, the figures for the TGI with SN12C renal and in the assay with RXF 393 renal were 53.6 µM and 53.4 µM, respectively.

Turning to `Clc1nc(Cl)c2ncn(C/C=C\Cn3cnc4c(Cl)nc(Cl)nc43)c2n1`, the GI50 with SF-268 CNS is 2.24 µM; in the assay on NCI-H522 lung, 1.76 µM; in the assay on SK-MEL-2 melanoma it was 1.75 µM; with HOP-62 NSCLC, 1.74 µM; with HCT-116 colon, 1.48 µM; in the assay on M14 melanoma, 2.15 µM. Also, the GI50 with 786-0 renal is 2.6 µM; in the assay on SN12C renal it was 3.01 µM; with RXF 393 renal, 2.18 µM. The TGI in the assay on SF-268 CNS was 5.71 µM; with NCI-H522 lung it was 4.02 µM; with SK-MEL-2 melanoma, 3.66 µM; in the assay with HOP-62 NSCLC, 4.71 µM; in the assay on HCT-116 colon it was 3.26 µM; with M14 melanoma it was 4.19 µM. Also, the TGI in the assay on 786-0 renal was determined as 6.88 µM; in the assay with SN12C renal, 9.71 µM; with RXF 393 renal it was 4.35 µM.

Regarding `OCCN(CO)CN(CN(CO)CCO)c1nc(N(CN(CO)CCO)CN(CO)CCO)nc(N(CN(CO)CCO)CN(CO)CCO)n1`, the GI50 was 1.35 ng/mL in the assay on SF-268 CNS; 1.47 ng/mL in the assay on HOP-62 NSCLC; 1.21 ng/mL with M14 melanoma; 1.56 ng/mL with HOP-92 NSCLC; 1.49 ng/mL in the assay on 786-0 renal; 1.49 ng/mL in the assay with SN12C renal. In addition, the TGI in the assay on SF-268 CNS was 2.93 ng/mL; in the assay on HOP-62 NSCLC it was 4.38 ng/mL; in the assay with M14 melanoma, 2.91 ng/mL; in the assay on HOP-92 NSCLC, 3.6 ng/mL; in the assay on 786-0 renal it was 4.6 ng/mL; in the assay with SN12C renal, 6.06 ng/mL.

Turning to `CCCCCCC(C)CC(CCCCCC)NCCOC(=O)c1ccc([N+](=O)[O-])cc1` (centres undefined), the TGI was 30.7 µM and 27.6 µM in the assay with SF-268 CNS; 28.4 µM and 26.2 µM with NCI-H522 lung; 30.7 µM and 28.6 µM with SK-MEL-2 melanoma; 33.7 µM and 30.7 µM in the assay with HOP-62 NSCLC; 28.1 µM and 24.1 µM in the assay on HCT-116 colon; 28.4 µM and 17.7 µM in the assay on M14 melanoma. Also, the TGI in the assay on HOP-92 NSCLC was 23.9 µM and 23 µM; with 786-0 renal, 33.7 µM and 33.5 µM; in the assay with SN12C renal it was 25.2 µM and 23.8 µM. The GI50 with M14 melanoma was 12.4 µM and 4.53 µM.

As for `COc1ccc(-c2ccc(/C=N/n3cn[nH]c3=S)o2)c([N+](=O)[O-])c1`, the GI50 is 29.1 µM in the assay on SF-268 CNS; 40.2 µM with NCI-H522 lung; 62.2 µM with HOP-62 NSCLC; 29.6 µM in the assay on HCT-116 colon; 49 µM with M14 melanoma; 66.2 µM with 786-0 renal. Besides, the GI50 in the assay on SN12C renal was 59.1 µM; with RXF 393 renal, 32.2 µM. Further, the TGI is more than 100 µM in the assay with SF-268 CNS; more than 100 µM with NCI-H522 lung; more than 100 µM in the assay on HOP-62 NSCLC; 94.4 µM in the assay with HCT-116 colon; more than 100 µM in the assay on M14 melanoma; more than 100 µM in the assay with 786-0 renal. Besides, the TGI with SN12C renal and in the assay with RXF 393 renal was more than 100 µM each time.

Take `COc1cc(C)cc2c1OC(c1ccccc1)CC2=O` (centres undefined): the GI50 in the assay on SF-268 CNS, in the assay with SK-MEL-2 melanoma, in the assay on HOP-62 NSCLC, with HCT-116 colon, with M14 melanoma and with 786-0 renal was more than 100 µM throughout. For the same compound, the GI50 in the assay with SN12C renal and in the assay on RXF 393 renal was more than 100 µM in each case. Further, the TGI in the assay with SF-268 CNS, in the assay on SK-MEL-2 melanoma, in the assay with HOP-62 NSCLC, with HCT-116 colon, in the assay on M14 melanoma and in the assay on 786-0 renal was more than 100 µM each time. Besides, the TGI with SN12C renal and in the assay with RXF 393 renal was more than 100 µM in each case.

Consider `Cc1cccc(C(C)(C)C)c1NC(=O)CC1C(=O)Nc2ccccc2S1=O` (centres undefined), for which the TGI in the assay on SF-268 CNS, in the assay on NCI-H522 lung, in the assay on SK-MEL-2 melanoma, with HOP-62 NSCLC, in the assay on HCT-116 colon and in the assay on M14 melanoma was more than 100 µM each time. Moreover, the TGI in the assay with HOP-92 NSCLC, with 786-0 renal and in the assay with SN12C renal was more than 100 µM in each case.

With `C[C@]12CC[C@H]3[C@@H](CC=C4C[C@@H](O)CC[C@@]43C)[C@@H]1C/C(=C\c1cccc(OCCN3CCOCC3)c1)[C@@H]2O`, the GI50 with SF-268 CNS was 70.9 µM; in the assay on NCI-H522 lung it was more than 100 µM; with SK-MEL-2 melanoma, 55.2 µM; in the assay with HOP-62 NSCLC, more than 100 µM; with HCT-116 colon, 80.6 µM; in the assay with M14 melanoma it was 24.3 µM. The results for the GI50 with HOP-92 NSCLC, in the assay on 786-0 renal and in the assay with SN12C renal were more than 100 µM, 50.7 µM and more than 100 µM, respectively. Moreover, the TGI in the assay on SF-268 CNS is more than 100 µM; in the assay on NCI-H522 lung, more than 100 µM; in the assay with SK-MEL-2 melanoma it was more than 100 µM; in the assay on HOP-62 NSCLC, more than 100 µM; with HCT-116 colon it was more than 100 µM; in the assay on M14 melanoma, 69.2 µM. Besides, the TGI with HOP-92 NSCLC, with 786-0 renal and with SN12C renal was more than 100 µM in each case.

Regarding `Cc1cccc(C(C)O)n1` (centres undefined), the TGI in the assay on SF-268 CNS, in the assay on NCI-H522 lung, in the assay with SK-MEL-2 melanoma, in the assay with HOP-62 NSCLC, with HCT-116 colon and in the assay on M14 melanoma was more than 100 µM each time. The TGI in the assay on 786-0 renal and in the assay with SN12C renal was more than 100 µM in each case.

Turning to `COc1cc2c(cc1OC)-c1c(cnn1C1OC(COC(C)=O)C(OC(C)=O)C(OC(C)=O)C1OC(C)=O)CC2` (centres undefined), the TGI in the assay with SF-268 CNS was more than 100 µM; in the assay with NCI-H522 lung it was 37.3 µM; with SK-MEL-2 melanoma, more than 100 µM; in the assay with HOP-62 NSCLC, more than 100 µM; with HCT-116 colon it was more than 100 µM; in the assay with M14 melanoma, more than 100 µM. The TGI with HOP-92 NSCLC and in the assay on 786-0 renal was more than 100 µM each time.

For `COc1ccc(Cl)cc1N1C(=O)C(Cl)=C(Nc2cccc(O)c2)C1=O`, the GI50 in the assay with SF-268 CNS was 13.2 µM; in the assay with NCI-H522 lung, 6.48 µM; in the assay with HOP-62 NSCLC it was 23.7 µM; with HCT-116 colon, 11.8 µM; in the assay on M14 melanoma, 14 µM; with 786-0 renal it was 21.1 µM. For the same compound, the results for the GI50 in the assay with SN12C renal and in the assay with RXF 393 renal were 14.7 µM and 7.36 µM, respectively. For the same compound, the TGI in the assay on SF-268 CNS is 30.7 µM; in the assay on NCI-H522 lung it was 20.1 µM; in the assay on HOP-62 NSCLC it was 74.8 µM; in the assay on HCT-116 colon, 24.9 µM; in the assay with M14 melanoma, 29.9 µM; in the assay with 786-0 renal, 60.2 µM. In addition, the TGI came to 29.8 µM in the assay on SN12C renal and 29 µM with RXF 393 renal.
